Source: patent publication US9233903B2, “Pharmaceutical substances on the basis of mitochondria-addressed antioxidants” (Mitotech SA, priority 2009, dated 2016)
Each block holds one molecule with its values, some of them ahead of it.

Columns and labels:
[1] = system: E. coli MG1655 pLUX::PkatG
Source text: (§1) To test pro-oxidant and antioxidant properties of mitochondria-addressed compounds of general formula (I), a method for determining oxidative stress in E. coli cells was developed. For this purpose, a biosensor system was created based on luxAB genes encoding bacterial luciferases to study effect of penetrating ions on oxidative stress in a bacterial cell.
The lux-biosensors were developed on the basis of these inducible promoters.
(§2) All the promoters used in the method, with corresponding regulatory regions, were obtained from the genome of the E. coli K12 MG1655 bacteria by the PCR method with the use of specific synthesized primers. A non-promoter vector with the pBR322 replicon and bla gene responsible for resistance to ampicillin (selective marker) was used as a vector. The promoter region was embedded into the plasmid at the EcoRI-BamHI sites. The lux operon of Ph. luminescens consisting of five genes, luxCDABE, was selected as the lux cassette.
(§3) In the first phase of testing, conditions for oxidative stress induction at which the maximum induction of luminescence occurs, were selected.

gramicidin channels [2] = experiment: Protection of gramicidin channels in bilayer membrane, damage by FeSO4, ascorbate and tert-butyl hydroperoxide; format: biochemical; conditions: FeSO4, ascorbate, tert-butyl hydroperoxide; FIG. 3B
Source text: A method was developed which allows the study of the antioxidant activity of compounds in a simple system consisting of a bilayer membrane, […]). […]

HeLa cells = experiment: H2O2-induced oxidative stress in cells, DCF-DA cytofluorimetry; format: cell-based, human; conditions: incubation for 1 to 5 hours
Description: To measure the level of oxidative stress stimulated by H2O2, cells were stained with fluorescent dye DCF-DA (2′,7′-dichloro-dihydrofluorescein diacetate), and the level of fluorescence of the dye was measured with a cytofluorimeter.
Estimates were made on the basis of seven experiments. Data were estimated with respect to a group of the control cells lying on the diagram in the area of low DCF-DA fluorescence (50% of the population), this group of cells was taken as 100% and indicators for every action were estimated relative to this group.

[3] = system: HeLa and normal human diploid fibroblasts; experiment: Protection of cells against H2O2-induced death (apoptosis), Hoechst/PI counting; format: cell-based; conditions: incubation with the cells for 5 to 7 days
Description: Testing of the antioxidant capacity of the compounds was performed using the methods of cytofluometry and fluorescence microscopy.
In preliminary experiments for each cell culture, the optimal concentration of H2O2 which causes significant (60% to 80%) cell apoptosis with no visible signs of necrosis was selected. To determine the chromatin condensation and fragmentation which occurs in apoptotic cells, the fluorescent dye Hoechst was used. The dye at a concentration of 1 μg/ml was added to live or fixed cells at the end of a 30 min incubation. To determine necrosis, the fluorescent dye propidium iodide (PI) at a concentration of 2 μg/ml was added to non-fixed cells. The percentage of apoptotic and necrotic cells was determined by counting the number of cells with fragmented nuclei and cells permeable to propidium iodide, respectively.

[4] = Penetrating ability on artificial black (bilayer phospholipid) membranes, membrane potential; format: physicochemical; conditions: for penetrating ability: bilayer membrane, comparison between compounds; for membrane potential (Δψ) generated: concentration range from 10^−7 to 10^−6 M, FIG. 2B
Source text: To test the penetrating ability of mitochondria-addressed compounds of structure (I), a method is used based on the ability of ions to penetrate through the phospholipid membrane bilayer moving along the concentration gradient. […] If a charged substance can penetrate through the bilayer membrane, its rapid diffusion out of the chamber having a high concentration of the substance, to the chamber having a low concentration of the substance, occurs, and thus a membrane potential difference is created. For ions which are carrying one charge and able to easily penetrate through the membrane, a 10-fold concentration gradient allows for creation of a potential of 60 mV (according to the Nernst equation). This method was used in various studies of the ability of ions to pass through the lipid bilayer of the membrane.

mitochondria = experiment: Accumulation in mitochondria measured with tetraphenylphosphonium-selective electrode; format: in vitro ADME; conditions: FCCP uncoupler; FIG. 4
Description: The ability of compounds of general formula (I) to accumulate in mitochondria was tested using a tetraphenylphosphonium-selective electrode. The method is used for compounds of general formula (I) in which the lipophilic cation tetraphenylphosphonium is used as the target group. With this electrode, it is possible to measure distribution of tetraphenylphosphonium cation (or compounds which comprise this cation) between the mitochondrial matrix and the medium.

[5] = Solubility in aqueous solutions
[6] = system: E. coli MG1655 pLUX::PsoxS; format: cell-based
Source text: as §1
The PsoxS promoter is activated when superoxide ion-radical appears in the environment. The lux-biosensors were developed on the basis of these inducible promoters.
as §2, §3

gramicidin channels [7] = experiment: Protection of gramicidin channels in bilayer membrane, damage by photoactivated phthalocyanine; format: biochemical; conditions: photoactivation of phthalocyanine; FIG. 3A
Source text: A method was developed which allows the study of the antioxidant activity of compounds in a simple system consisting of a bilayer membrane, a conducting protein gramicidin and a photosensitizer (Mito Tracker Red, Invitrogen, Carlsbad, Calif.), thrice sulfonated aluminum phthalocyanine or zinc phthalocyanine). The method uses the ability of reactive oxygen species generated by photoactivation of the photosensitizer molecules to damage gramicidin channels, resulting in a sharp decrease in the conducting ability of the bilayer membrane.

Molecule: OO [Compound H2O2, hydrogen peroxide]
time at which induction of luminescence becomes evident ([1]; FIG. 10A): ≤ 15 min
time to maximum luminescence ([1]; FIG. 10A): one hour
ratio of luminescence intensity between control cells and induced cells ([1]; optimal concentrations of H2O2): 1/80

Molecule: COC1=C(OC)C(=O)C(CCCCCCCCCC[P+](c2ccccc2)(c2ccccc2)c2ccccc2)=C(C)C1=O [MitoQ]
antioxidant efficiency, protection of gramicidin channels (gramicidin channels [2]): less efficient antioxidants
effect on H2O2-induced oxidative stress in cells (HeLa cells): did not prevent
resistance of cells to H2O2 [3]: increase resistance of cells to H2O2
penetrating ability [4]: less penetrating abilities compared to SkQ3 or SkQR1

Molecule: CC1=C(C)C(=O)C(CCCCCCCCCC[P+](c2ccccc2)(c2ccccc2)c2ccccc2)=CC1=O [SkQ1, [10-(4,5-dimethyl-3,6-dioxo-cyclohexa-1,4-dien-1-yl)decyl]-triphenylphosphonium bromide]
energy-independent accumulation in mitochondria (mitochondria): independent of the degree of energization of the mitochondria

Molecule: CC1=C(C)C(=O)C(CCCCCCCCCC[P+](c2ccccc2)(c2ccccc2)c2ccccc2)=C(C)C1=O [SkQ3]
antioxidant efficiency, protection of gramicidin channels (gramicidin channels [2]): less efficient antioxidants

energy-independent accumulation in mitochondria (mitochondria): reduced
Molecule: CC1=C(C)C(=O)C(CCCCC[P+](c2ccccc2)(c2ccccc2)c2ccccc2)=CC1=O [SkQ5]

solubility in aqueous solutions [5]: poor solubility
membrane potential (Δψ) generated [4]: almost the same Δψ as SkQ1
Molecule: COc1ccc2c(CC(=O)OCCCCCCCC3=CC(=O)C(C)=C(C)C3=O)c3[n+](cc2c1OC)CCc1cc2c(cc1-3)OCO2 [SkQB1, 13-[7-(4,5-dimethyl-3,6-dioxo-cyclohexa-1,4-dien-1-yl)heptyloxycarbonyl-methyl]berberine]

membrane potential (Δψ) generated [4]: almost the same Δψ as SkQ1
Molecule: COc1cc2c(cc1OC)-c1c(CC(=O)OCCCCCCCC3=CC(=O)C(C)=C(C)C3=O)c3ccc(OC)c(OC)c3c[n+]1CC2 [SkQBP1, 13-[7-(4,5-dimethyl-3,6-dioxo-cyclohexa-1,4-dien-1-yl)heptyloxycarbonyl-methyl]palmatine]

penetrating ability [4]: higher penetrating ability
Molecule: CC/N=c1/cc2oc3cc(NCC)c(C)cc3c(-c3ccccc3C(=O)OCCCCCCCCCCC3=CC(=O)C(C)=C(C)C3=O)c-2cc1C [SkQR1]
effect on H2O2-induced oxidative stress in cells (HeLa cells): has antioxidant activity
concentration above which compound ceases to obey the Nernst equation (membrane damage) ([4]; FIG. 2A): higher than 5×10^−5 M

Molecule: C[n+]1ccc(-c2cc[n+](C)cc2)cc1 [paraquat]
time at which induction of luminescence becomes evident ([6]; FIG. 10B): 15 to 20 min
time to maximum luminescence ([6]; FIG. 10B): two hours
ratio of luminescence intensity between control cells and induced cells ([6]; optimal concentrations of paraquat): 1/100

Molecule: superoxide dismutase
prevention of fall in membrane conductance (gramicidin channels) (gramicidin channels [7]): effectively blocked
